{"source": "patent US9004752B2", "about": "“Method for evaluating the solubility of a crystalline substance in a polymer” (Abbvie, Inc., priority 2008, dated 2015)", "key": {"[1]": {"format": "physicochemical", "details": "30% w/w in PVP, initially amorphous, yielded crystals", "protocol": "To set up an aging experiment, the sample was added into an open DSC pan and heated up on a microscope hot-stage (Linkam THMS 600) to Tm+20° C. under vacuum. The application of vacuum removed air bubbles trapped in the viscous melt. The pan was then quenched to room temperature, sealed immediately, and aged in an oven of known temperature.\nTo verify the solubility of D-mannitol in PVP obtained with the DSC method (Method I), we used two other solubility-indicating methods (FIG. 7). In the first (Method II), D-mannitol was mixed with PVP at a concentration higher than predicted. The mixture was then aged to see whether the supersaturated solution indeed crystallized over time. We tracked three indicators of crystallization: (a) the glass transition temperature Tg of the mixture, which is expected to increase when D-mannitol is removed from its mixture with PVP (FIG. 5); (b) the appearance of new endotherms with aging which correspond to the dissolution of newly crystallized D-mannitol; and (c) new crystals observable by polarized light microscopy. Modulated DSC (MDSC) was used to measure Tg. In the second method (Method III), D-mannitol was mixed with PVP at high enough concentration so that D-mannitol rapidly crystallized. […]\nFor Method II, D-mannitol was mixed with PVP by cryogenic milling at 30% w/w. […] The mixture was analyzed by DSC at times ranging from a few days to 155 days. […]"}, "[2]": {"assay": "DSC dissolution-endpoint method (Method I): solubility of a crystalline substance in a polymer", "details": "for solubility in PVP: by extrapolation", "quoted_text": "In a typical procedure, 0.5-1 g of solute/polymer powder was milled at 10 Hz. Each cycle of milling was 2 min, followed by a 2 min cool-down. The cycle was repeated to achieve a desired milling time (16-60 min).\nStandard and modulated differential scanning calorimetry (DSC) was conducted in hermetic aluminium pans using a TA Instruments DSC Q1000. 5-10 mg of the sample was packed into the pans. A pin hole was made in the lid to allow the escape of moisture. Standard DSC was performed at heating rates from 0.1 to 3° C./min. Modulated DSC was used to observe the glass transition of the amorphous phase at a heating rate of 2° C./min with the temperature modulating at ±0.5° C. every 60 second.\nTo further minimize the effect of slow dissolution on the measurement of equilibrium solubility, we measured Tend at several heating rates (FIG. 3) and obtained the Tend at zero heating rate by extrapolation (FIG. 4).\nThe larger the difference (Tend−Tg), the lower the viscosity of the solution in which D-mannitol completed its dissolution. […] For such systems, Tend changed rapidly and non-linearly with the heating rate, making the extrapolation to zero heating rate less certain. […] Despite this limitation the method enabled us to get sufficiently close to Tg to estimate the solubility of D-mannitol in PVP at Tg: by extrapolation. […] At 95° C., the saturated solution exists at the glass transition temperature.\nAs in the case of D-mannitol/PVP, cryomilling was used to prepare drug/polymer mixtures. […] As in the case of the D-mannitol/PVP, cryomilling facilitated the determination of dissolution endpoint."}}}
{"smiles": "OC[C@@H](O)[C@@H](O)[C@H](O)[C@H](O)CO", "note": "[D-mannitol]", "values": [{"measurement": "state of the 30% solution in PVP on aging", "setting": "[1]", "result": "supersaturated"}, {"measurement": "predicted solubility in PVP (Method I)", "setting": "[2]; 105° C., temperature chosen for the validation tests", "result": 15, "unit": "%"}, {"measurement": "solubility in PVP", "setting": "[2]; PVP K15, […]", "result": 15, "unit": "% w/w"}, {"measurement": "solubility in PVP", "setting": "[2]; PVP K15, at 95° C., […]", "result": 10, "unit": "% w/w"}]}
